Data from patent US11767353B2, “Trail compositions with reduced immunogenicity” (Theraly Fibrosis, Inc., priority 2020, dated 2023).
“Also recorded” adds a separate entry of the source.

System: ASPC-1/PSC xenografts
Test: PSC/ASPC-1 subcutaneous xenograft in athymic nude mice
Format: in vivo
Experimental: Six-week-old athymic nude mice were anesthetized for all procedures 5×10^6ASPC-1 cells (human pancreas adenocarcinoma ascites metastasis cell line derived from nude mouse xenografts initiated with cells from the ascites of a patient with cancer of the pancreas) were mixed with 5×10^4 PSC cells and injected in a subcutaneous in athymic nude mice. Before injection, the cells were trypsinized, counted, washed twice in 1×PBS and resuspended in 100 μl of Matrigel® matrix (Corning), and injected between the scapulae. Two weeks after the tumor transplantation, mice were injected with TLY012 via intravenous (IV) injection (10 mg/kg, every other day) for 2 weeks, while control mice received PBS. Western blot was performed on tissue extracts with antibodies against GAPDH (Santa Cruz 5 Biotechnology, sc-1694), α-SMA (Sigma, A2547), GRP78 (Santa Cruz Biotechnology, sc-13968), DR4 (Abcam, Cambridge, Mass., #13890), DR5 (Abcam, #47179), PDGF-Rb (Santa Cruz Biotechnology, sc-432), and Cl.PARP-1 (Cell Signaling Technology, #5625).
Comparative quantitative RT-PCR (qPCR) was performed in the tumor sample for fibrogenic markers. qPCR was performed in triplicate for each sample using fast SYBR Green Master Mix (Thermo Fisher Scientific) and StepOnePlus Real-Time PCR System (Thermo Fisher Scientific). The expression levels of target genes were normalized to the expression of 18s and calculated based on the comparative cycle threshold Ct method (2^−ΔΔCt).
Collagen deposition was detected with Masson's Trichrome staining and microscopy.
Mouse xenografts were generated as in Example 8. Two weeks after the tumor transplantation, mice were injected with TLY012 via intravenous (IV) injection (10 mg/kg, every other day) and/or sorafenib (20 mg/kg, oral everyday) for 2 weeks. The mice were euthanized when the tumor volume reached 1500 mm^3 and images of the excised xenografts recorded and tumor weight measured.

Q: Which results are given for “TLY012: PEGylated (5 kDa PEG-aldehyde) recombinant human TRAIL (114-281) fused to modified isoleucine zipper (miLZ) at N-terminus; SEQ ID NO:30 trimer”?
A: tumor weight, Mean (TLY012 IV 10 mg/kg every other day and/or sorafenib 20 mg/kg oral everyday for 2 weeks): 1109.5 mg; collagen deposition, Masson's Trichrome staining (TLY012 IV 10 mg/kg every other day, 2 weeks, 10 mg/kg): reduced the levels of collagen; also recorded: markedly reduced collagen deposition; PDGF-Rb, DR5, DR4 (and GRP78) protein levels in tumor, Western blot (TLY012 IV 10 mg/kg every other day, 2 weeks, vs PBS controls, 10 mg/kg): markedly reduced; also recorded: significantly decreased; mRNA levels of fibrogenic markers Acta2, Pdgf-r, Tgf-b in tumor (qPCR) (TLY012 IV 10 mg/kg every other day, 2 weeks, vs control, 10 mg/kg): decreased; also recorded: significantly reduced
